# Reference: US20230357271A1, “MACROCYCLIC COMPOUND” (Asahi Kasei Pharma Corporation, priority 2020, published 2023)
# Legend:
# human IRAK-4 = human IRAK-4 (Homo sapiens (Human), UniProt Q9NWZ3); assay: Measurement of human IRAK-4 inhibitory activity (TR-FRET); format: biochemical; conditions: 1 nM IRAK-4, 0.5 µM peptide substrate, 10 µM ATP, 23° C., 30 minutes
# Method: For the measurement of the activity of the human IRAK-4 (Invitrogen, Cat. PV3362), phosphorylation of the IRAK-4 peptide substrate (biotin-KKKKRFSFKKSFKC) by the enzyme in the presence of 10 µM ATP (Sigma-Aldrich, Cat. A7699) was measured by the TR-FRET method. The enzymatic reaction was performed in a reaction buffer containing 50 mM HEPES (pH 7.2), 1 mM DTT, 0.1 mM Na3VO4, 5 mM MgCl2, 1 mM MnCl2, and 0.1% bovine serum albumin. For the measurement of the IRAK-4 inhibitory activity, a test compound was added to the reaction buffer containing 1 nM IRAK-4, 0.5 µM peptide substrate, and 10 µM ATP, and the mixture was incubated at 23° C. for 30 minutes. Then, a detection solution containing an antibody labeled with europium cryptate (0.3 µg/mL, the antibody was prepared by using the IRAK-4 peptide substrate as the antigen), streptavidin-XL665 (2 µg/mL, CisBio, Cat. 610SAXLB), 50 mM HEPES (pH 7.2), 0.1% BSA, 120 mM KF, and 66.7 mM EDTA (all the concentrations of the reagents are final concentrations) was added to terminate the reaction, and then the mixture was further incubated at 23° C. for 60 minutes. Fluorescence intensity was measured at wavelengths of 665 nm and 620 nm with a microplate reader, and the enzymatic activity was calculated as the ratio of fluorescence intensities at 665 nm and 620 nm (665 nm/620 nm).
# When the measurement was performed in multiplicate, the results are represented with average values.
# [1] = system: human acute monocytic leukemia cell strain THP-1; assay: LPS-stimulated TNFα production inhibition test using THP-1 cells; format: cell-based; conditions: LPS 2.5 ng/mL, TNFα by HTRF
# Method: By the THP-1 assay, influence of a test compound on the TNFα production induced by LPS stimulation can be evaluated. The THP-1 cells (ATCC, Cat. TIB-202) were inoculated on a 96-well plate at a density of 1 × 10^5 cells/160 µL/well, a test compound was added in a volume of 20 µL, and the plate was incubated at 37° C. for 1 hour in a 5% CO2 incubator. Then, LPS in a volume of 20 µL (final concentration 2.5 ng/mL, Sigma, Cat. L2630) was added, and the plate was further incubated for 4 hours. After the incubation, the plate was centrifuged, and 100 µL of the supernatant was taken from each well, and used for evaluation of the amount of TNFα using HTRF (Cisbio, Cat. 62TNFPEB). In the measurement of the amount of TNFα, the supernatant was diluted twice with the medium, and then added to wells of a 384-well plate in a volume of 10 µL, then anti-TNFα-cryptate (5 µL), and anti-TNFα-XL665 (5 µL) were added, and the plate was left standing overnight. The fluorescence intensity ratio for the wavelengths of 620 and 665 nm (620 nm/665 nm) was measured with a microplate reader, and the amount of TNFα in the supernatant was calculated by using a calibration curve. The TNFα production suppression ratio observed with no addition of LPS was defined to be 100%, the TNFα production suppression ratio observed with no addition of the test compound was defined to be 0%, and IC50 of the test compound was calculated by using the 4-parameter logistic model of the data analysis software XLfit (ID Business Solutions Ltd.).
# When the measurement was performed in multiplicate, the results are represented with average values. The values were rounded to the fourth decimal place.
# human IRAK-4, sequence (Q9NWZ3 whole entry): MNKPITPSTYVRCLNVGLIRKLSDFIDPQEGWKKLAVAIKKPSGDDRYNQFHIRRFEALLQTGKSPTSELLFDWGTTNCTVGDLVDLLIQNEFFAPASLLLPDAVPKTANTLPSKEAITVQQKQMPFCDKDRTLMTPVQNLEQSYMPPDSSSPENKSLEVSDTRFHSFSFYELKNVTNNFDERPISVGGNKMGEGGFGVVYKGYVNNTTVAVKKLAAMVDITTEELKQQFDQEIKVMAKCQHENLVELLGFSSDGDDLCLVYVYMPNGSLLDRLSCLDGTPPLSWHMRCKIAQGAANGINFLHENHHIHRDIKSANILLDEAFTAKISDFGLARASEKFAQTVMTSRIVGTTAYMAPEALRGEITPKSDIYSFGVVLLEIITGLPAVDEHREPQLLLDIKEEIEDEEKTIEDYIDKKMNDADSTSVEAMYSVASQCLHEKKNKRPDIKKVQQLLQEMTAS
Structure (SMILES),IC50 (human IRAK-4),"IC50 ([1]; Homo sapiens, THP-1, 4 h)",IC50 ([1]; 4 hours)
COCc1ncc(-c2ccc3ncc4nc3c2OCCCNC(=O)[C@@H]2C[C@H](CCN2C)N4)cn1 [a-01-45],3.28 nM,0.227 µM,–
CCCOCc1ncc(-c2ccc3ncc4nc3c2OCCCCCNC(=O)[C@@H]2C[C@H](CCN2C)N4)cn1 [a-01-27],4.25 nM,0.145 µM,–
CN1CCCOc2c(-c3cncnc3)ccc3ncc(nc23)N[C@H]2CCN(C)[C@@H](C2)C1=O [a-01-34],4.19 nM,0.177 µM,–
Cc1ncc(-c2ccc3ncc4cc3c2OCCCOC(=O)C2CC(CC(C)N2C)N4)cn1 (stereo not shown) [a-02-07],2.04 nM,0.033 µM,–
Cc1ncc(-c2ccc3ncc4cc3c2CCCCNC(=O)[C@@H]2C[C@H](CC(C)N2C)N4)cn1 (stereo partly shown) [a-02-22],–,0.324 µM,–
Cc1ncc(-c2ccc3ncc4nc3c2OCCCN(C)C(=O)[C@@H]2C[C@H](CCN2C)N4)cn1 [a-01-42],6.61 nM,0.246 µM,–
CN1CC[C@H]2C[C@H]1C(=O)NCCCOc1c(-c3cncnc3)ccc3ncc(nc13)N2 [a-01-09],1.28 nM,0.064 µM,–
Cc1ncc(-c2ccc3ncc4nc3c2OCC(F)CNC(=O)[C@@H]2C[C@H](CCN2C)N4)cn1 (stereo partly shown) [a-01-41],10 nM,–,0.293 µM
CCCOCc1ncc(-c2ccc3ncc4nc3c2OCC(F)COC(=O)[C@@H]2C[C@H](CCN2C)N4)cn1 (stereo partly shown) [a-01-06],2.53 nM,0.05 µM,–
CN1CC[C@H]2C[C@H]1C(=O)OCCCOc1c(-c3cnc(COCC(O)C4CC4)nc3)ccc3ncc(cc13)N2 (stereo partly shown) [a-02-04],5.63 nM,0.023 µM,–
CN1CC[C@H]2C[C@H]1C(=O)NCCCOc1c(-c3cnc(COC4CCC4)nc3)ccc3ncc(nc13)N2 [a-01-13],2.95 nM,0.076 µM,–
Cc1ncc(-c2ccc3ncc4cc3c2OCCCOC(=O)[C@@H]2C[C@H](CCN2)N4)cn1 [a-02-18],1.66 nM,0.081 µM,–
Cc1ncc(-c2ccc3ncc4nc3c2OCC(F)CNC(=O)[C@@H]2C[C@H](CCN2C)N4)cn1 (stereo partly shown) [a-01-19],1.6 nM,–,0.113 µM
"Cc1ncc(-c2ccc3ncc4cc3c2OCC(F)CNC(=O)C2(C)CC(CCN2C)N4)cn1 (stereo not shown) [a-02-23, 7-Fluoro-3^1,3^2-dimethyl-1^6-(2-methylpyrimidin-5-yl)-9-oxa-2,5-diaza-1 (3,5)-qunolina-3(4,2)-piperidinacyclononaphan-4-one]",9.7 nM,0.716 µM,–
Cc1ncc(-c2ccc3ncc4cc3c2OCC(F)CNC(=O)[C@@H]2C[C@H](CC(C)N2C)N4)cn1 (stereo partly shown) [a-02-09],0.86 nM,0.036 µM,–
CN1CC[C@H]2C[C@H]1C(=O)NCC1(CC1)COc1c(-c3cncnc3)ccc3ncc(nc13)N2 [a-01-03],2.11 nM,0.045 µM,–
CCCOCc1ncc(-c2ccc3ncc4nc3c2OCCC(F)CNC(=O)[C@@H]2C[C@H](CCN2C)N4)cn1 (stereo partly shown) [a-01-31],3.42 nM,0.163 µM,–
CCC(O)COCc1ncc(-c2ccc3ncc4cc3c2OCCCOC(=O)[C@@H]2C[C@H](CCN2C)N4)cn1 (stereo partly shown) [a-02-08],5.73 nM,0.036 µM,–
CCCOCc1ncc(-c2ccc3ncc4nc3c2OCC(F)(F)CNC(=O)[C@@H]2C[C@H](CCN2C)N4)cn1 [a-01-23],1.21 nM,0.124 µM,–
Cc1ncc(-c2ccc3ncc4nc3c2OCC2(CC2)CNC(=O)[C@@H]2C[C@H](CCN2C)N4)cn1 [a-01-25],4.43 nM,0.141 µM,–
O=C1OCCCOc2c(-c3cnc(CO[C@H]4CCC[C@@H]4O)nc3)ccc3ncc(cc23)N[C@H]2CCN[C@H]1C2 [a-02-03],2.51 nM,0.013 µM,–
"CCCOCc1ncc(-c2ccc3ncc4nc3c2OCCCNC(=O)[C@@H]2C[C@H](CCN2C)N4)cn1 [a-01-07, (3^2S,3^4S)-3^1-Methyl-1^7-(2-(propoxymethyl)pyrimidin-5-yl)-9-oxa-2,5-diaza-1(2,8)-quinoxalina-3(4,2)-piperidinacyclononaphan-4-one]",1.49 nM,0.057 µM,–

Structure (SMILES),IC50 (human IRAK-4),"IC50 ([1]; Homo sapiens, THP-1, 4 h)",IC50 ([1]; 4 hours)
CCCOCc1ncc(-c2ccc3ncc4cc3c2OCCCOC(=O)[C@@H]2C[C@H](CCN2)N4)cn1 [a-02-05],2.47 nM,0.023 µM,–
CN1CC[C@H]2C[C@H]1C(=O)NCCCOc1c(-c3cnsc3)ccc3ncc(nc13)N2 [a-01-14],1.73 nM,0.08 µM,–
CCCOCc1ncc(-c2ccc3ncc4nc3c2OCCCOC(=O)[C@@H]2C[C@H](CCN2C)N4)cn1 [a-01-15],2.77 nM,0.081 µM,–
CCCOCc1ncc(-c2ccc3ncc4cc3c2OCC(F)CNC(=O)[C@@H]2C[C@H](CC(C)N2C)N4)cn1 (stereo partly shown) [a-02-01],2.33 nM,0.012 µM,–
CN1CC[C@H]2C[C@H]1C(=O)OCCCOc1c(-c3cnc(CO)nc3)ccc3ncc(cc13)N2 [a-02-15],2.23 nM,0.064 µM,–
CCCOCc1ncc(-c2ccc3ncc4cc3c2OCC(F)COC(=O)[C@@H]2C[C@H](CCN2C)N4)cn1 (stereo partly shown) [a-02-14],6.46 nM,0.058 µM,–
Cc1ncc(-c2ccc3ncc4cc3c2OCCCOC(=O)[C@@H]2C[C@H](CCN2C)N4)cn1 [a-02-20],3.21 nM,0.117 µM,–
CCCOCc1ncc(-c2ccc3ncc4nc3c2OCCCNC(=O)[C@@H]2C[C@H](CCN2CC)N4)cn1 [a-01-35],2.84 nM,0.178 µM,–
CN1CC[C@H]2C[C@H]1C(=O)NCCCCOc1c(-c3cncnc3)ccc3ncc(nc13)N2 [a-01-30],2.8 nM,0.162 µM,–
CCCOCc1ncc(-c2ccc3ncc4nc3c2OCCC(C)NC(=O)[C@@H]2C[C@H](CCN2C)N4)cn1 (stereo partly shown) [a-01-43],–,0.237 µM,–
CN1CC[C@H]2C[C@H]1C(=O)NCCCOc1c(-c3cnc(CO)nc3)ccc3ncc(nc13)N2 [a-01-32],1.59 nM,0.165 µM,–
Cc1ncc(-c2ccc3ncc4nc3c2OCC(F)COC(=O)[C@@H]2C[C@H](CCN2C)N4)cn1 (stereo partly shown) [a-01-20],1.15 nM,0.113 µM,–
[2H]C([2H])([2H])N1CC[C@H]2C[C@H]1C(=O)NCC(F)COc1c(-c3cnc(COCCC)nc3)ccc3ncc(cc13)N2 (stereo partly shown) [a-02-06],2 nM,0.024 µM,–
CCCOCc1ncc(-c2ccc3ncc4nc3c2OCC2(CC2)CNC(=O)[C@@H]2C[C@H](CCN2C)N4)cn1 [a-01-04],4.24 nM,0.048 µM,–
CN1CC[C@H]2C[C@H]1C(=O)NCC1(CCC1)COc1c(-c3cncnc3)ccc3ncc(nc13)N2 [a-01-29],4.14 nM,0.15 µM,–
CC1CNC(=O)[C@@H]2C[C@H](CCN2C)Nc2cnc3ccc(-c4cncnc4)c(c3n2)OC1 (stereo partly shown) [a-01-36],8.86 nM,0.182 µM,–
Cc1ncc(-c2ccc3ncc4cc3c2OCC2(CC2)COC(=O)[C@@H]2C[C@H](CCN2C)N4)cn1 [a-02-19],3.9 nM,0.102 µM,–
CN1CC[C@H]2C[C@H]1C(=O)NCCCOc1c(-c3cnc(CO)s3)ccc3ncc(nc13)N2 [a-01-11],0.79 nM,0.073 µM,–
CN1CC[C@H]2C[C@H]1C(=O)NCC(C)(C)COc1c(-c3cncnc3)ccc3ncc(nc13)N2 [a-01-40],14.8 nM,0.253 µM,–
"Cc1ncc(-c2ccc3ncc4cc3c2/C=C/CCNC(=O)[C@@H]2CC(CC(C)N2C)N4)cn1 (stereo in doubt) [a-02-17, (3^2S,E)-3^1,3^6-Dimethyl-1^6-(2-methylpyrimidin-S-yl)-2,5-diaza-1 (3,5)-qunolina-3(4,2)-piperidinacyclononaphan-8-en-4-one]",1.76 nM,0.066 µM,–
CCCOCc1ncc(-c2ccc3ncc4cc3c2OCCCOC(=O)[C@@H]2C[C@H](CCN2C)N4)cn1 [a-02-10],2.96 nM,0.043 µM,–
"CCCOCc1ncc(-c2ccc3ncc4cc3c2OCCCNC(=O)[C@@H]2C[C@H](CCN2C)O4)cn1 [a-02-25, (3^2S,3^4S)-3^1-Methyl-1^6-(2-(propoxymethyl)pyrimidin-5-yl)-2,9-dioxa-5-aza-1 (3,5)-qunolina-3 (4,2)-piperidinacyclononaphan-4-one]",–,0.5 µM,–
